Tested on: tender mangoes
Assay: Preservation of tender mangoes in salt solution, 45 days at room temperature
Settings: common salt solution 2.5%, optimized nutrient salt solution 5% (matching saltiness), 25 to 35 degree centigrade
From the text: Two sets of 1000 gm tender mangoes were put in two separate sterile glass bottles. First bottle was filled with common salt solution up to the neck of the bottle and the second bottle was filled with optimized nutrient salt solution prepared by a process as given in example 1 of matching saltiness. Saltiness of optimized nutrient salt is only half of common salt. While the common salt solution used was 2.5% and the optimized nutrient salt solution was 5%. Bottle closed with cap and kept for seasoning for 45 days in room temperature around 25 to 35 degree centigrade.

[Cl-].[Na+] [common salt]
fungal growth at the surface of the solution: thin layer of fungal growth
